Results on three compounds are retold here after article PMC3433420 (PLoS ONE, 2012).

Holding throughout (assay): In-house protein microarrays (with or without 5 mM DTT), protein named per line
What all share (type): binding

Assay [1] addresses T1, SH2 and PTB domains (Homo sapiens, UniProt O60880).
T1 construct: thioredoxin; made in house; host or cells: BL21(DE3)pLysS E. coli
T1 sequence (O60880 1-128): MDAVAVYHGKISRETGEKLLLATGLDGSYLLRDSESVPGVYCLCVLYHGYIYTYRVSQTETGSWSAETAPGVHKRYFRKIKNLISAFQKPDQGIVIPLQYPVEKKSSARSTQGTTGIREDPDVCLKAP
As to conditions: protein SH2D1A. The method, then: (§1) 300 pL of purified recombinant proteins and a thioredoxin tag control were spotted at a concentration of ∼40 µM in duplicate onto aldehyde-coated microscope slides (Erie Scientific Company, Portsmouth, NH) using a Nano-Plotter (NP) 2.1/E noncontact microarrayer (GeSiM, Munich, Germany). 16 identical microarrays per slide were printed in a 2×8 (column by row) format with distances of 9 mm between individual arrays; each array consisted of a 14×14 configuration of spots 400 µm apart. Following printing at a constant humidity level of 50%, slides were desiccated overnight and stored at −80°C. For peptide probing, array slides were transferred to 96-well microplates (TeleChem International, Inc., Sunnyvale, CA) and sandwiched with silicone gaskets. Prior to peptide addition, aldehyde sites were quenched with buffer B (20 mM HEPES, 100 mM KCl, 0.1% Tween-20, 5 mM DTT, pH 7.8) containing 1% bovine serum albumin (BSA) (w/v) for one hour at room temperature; moderate agitation was applied in a plate shaker (IKA, Germany) to displace glycerol from the surface area of protein sample spots. […] The arrays were subsequently washed once with 300 µL of buffer B and once with 300 µL of ddH2O. Residual water was removed by centrifugation; slides were stored under desiccation in the dark until analysis.
(§2) Microarray slides were scanned at a resolution of 10 µm using a GenePix 4000B microarray scanner and analyzed using GenePix Pro v6.0 software (Molecular Devices, Sunnyvale, CA). To independently visualize protein spots irrespective of peptide binding, samples were printed simultaneously with 400 nM of Cyanine-5 (Cy5) labeled bovine serum albumin (BSA). […] Following spot layout identification via Cy5 labeled BSA, the mean fluorescence intensity of rhodamine for duplicate protein spots was quantified and normalized by subtracting the corresponding mean fluorescence intensity of thioredoxin. Normalized fluorescence values were then imported into MATLAB and KDs determined as previously described.

The target in assay [2] is T2, SH2 and PTB domains (Homo sapiens, UniProt P12931).
T2 construct: thioredoxin; made in house; host or cells: BL21(DE3)pLysS E. coli
As to conditions: protein SRC. The method, then: as §1, §2

For assay [3], the target named is T3, SH2 and PTB domains (Homo sapiens, UniProt P16885).
T3 construct: thioredoxin; made in house; host or cells: BL21(DE3)pLysS E. coli
T3 sequence (P16885 1-1265): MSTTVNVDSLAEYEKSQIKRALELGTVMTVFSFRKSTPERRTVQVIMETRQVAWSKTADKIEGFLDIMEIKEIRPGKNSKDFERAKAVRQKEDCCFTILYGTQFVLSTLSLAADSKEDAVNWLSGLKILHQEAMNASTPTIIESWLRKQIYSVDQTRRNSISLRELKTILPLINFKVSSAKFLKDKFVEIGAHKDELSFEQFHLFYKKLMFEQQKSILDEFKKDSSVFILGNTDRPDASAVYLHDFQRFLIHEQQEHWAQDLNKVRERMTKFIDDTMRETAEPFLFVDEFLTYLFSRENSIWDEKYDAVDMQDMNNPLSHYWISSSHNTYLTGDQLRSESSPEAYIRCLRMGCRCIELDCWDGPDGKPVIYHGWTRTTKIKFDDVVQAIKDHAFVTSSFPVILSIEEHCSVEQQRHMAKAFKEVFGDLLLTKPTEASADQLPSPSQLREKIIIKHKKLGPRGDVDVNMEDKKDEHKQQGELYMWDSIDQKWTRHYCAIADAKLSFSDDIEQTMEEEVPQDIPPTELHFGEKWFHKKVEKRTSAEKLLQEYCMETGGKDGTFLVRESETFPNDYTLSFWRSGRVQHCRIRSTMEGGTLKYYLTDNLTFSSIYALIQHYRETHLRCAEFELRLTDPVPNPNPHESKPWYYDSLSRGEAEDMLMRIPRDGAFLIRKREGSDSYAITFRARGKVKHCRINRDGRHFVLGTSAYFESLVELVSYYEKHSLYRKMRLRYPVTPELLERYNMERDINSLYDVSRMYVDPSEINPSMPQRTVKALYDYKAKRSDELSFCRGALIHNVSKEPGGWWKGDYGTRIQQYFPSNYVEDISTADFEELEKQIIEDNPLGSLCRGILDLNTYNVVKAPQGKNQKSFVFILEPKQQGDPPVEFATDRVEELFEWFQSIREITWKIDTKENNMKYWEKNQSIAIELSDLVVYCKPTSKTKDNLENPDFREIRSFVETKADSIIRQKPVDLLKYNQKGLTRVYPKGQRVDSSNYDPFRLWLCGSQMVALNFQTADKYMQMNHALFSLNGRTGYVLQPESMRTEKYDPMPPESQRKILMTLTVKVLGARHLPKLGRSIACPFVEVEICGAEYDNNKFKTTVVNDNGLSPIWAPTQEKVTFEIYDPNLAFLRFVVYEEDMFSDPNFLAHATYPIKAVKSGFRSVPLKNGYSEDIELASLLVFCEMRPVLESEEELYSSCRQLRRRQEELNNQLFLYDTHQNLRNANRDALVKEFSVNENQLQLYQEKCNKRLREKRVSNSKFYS
The protocol: as §1, §2

Assay [4] deals with T4, SH2 and PTB domains (Homo sapiens, UniProt O00459).
T4 construct: thioredoxin; made in house; host or cells: BL21(DE3)pLysS E. coli
As to conditions: array fabrication # 39329. The method, then:
as §1, §2

Assay [5] deals with T5, SH2 and PTB domains (Homo sapiens, UniProt P07947).
T5 construct: thioredoxin; made in house; host or cells: BL21(DE3)pLysS E. coli
As to conditions: protein YES1. The protocol: as §1, §2

In assay [6] the target is T6, SH2 and PTB domains (Homo sapiens, UniProt P51451).
T6 construct: thioredoxin; made in house; host or cells: BL21(DE3)pLysS E. coli
As to conditions: protein BLK. The protocol: as §1, §2

Assay [7] deals with T7, SH2 and PTB domains (Homo sapiens, UniProt Q92569).
T7 construct: thioredoxin; made in house; host or cells: BL21(DE3)pLysS E. coli
The method, then: as §1, §2

Assay [8] addresses T8, SH2 and PTB domains (Homo sapiens, UniProt Q9BRG2).
T8 construct: thioredoxin; made in house; host or cells: BL21(DE3)pLysS E. coli
As to conditions: protein SH2D3A. The protocol:
as §1, §2

Setting [9] is: PM assay replicate # 39331, array fabrication # 39329.
Setting [10] is: PM assay replicate # 39336, array fabrication # 39329.
Where [11] appears, read: protein PLCG2-NC, PM assay replicate # 39336, array fabrication # 39329.
[12] abbreviates: PM assay replicate # 39337, array fabrication # 39329.
[13] abbreviates: PM assay replicate # 39603, array fabrication # 39392.
Setting [14] is: protein PLCG2-NC, PM assay replicate # 39337, array fabrication # 39329.
[15] abbreviates: protein PIK3R3-NC, PM assay replicate # 39337, array fabrication # 39329.
The mark [16] stands for this setting: PM assay replicate # 39307, array fabrication # 39286.
The mark [17] stands for this setting: PM assay replicate # 39351, array fabrication # 39336.
Setting [18] is: PM assay replicate # 39352, array fabrication # 39336.

Residues, ends and D or L forms follow the SMILES beside them.

T5 sequence (P07947 whole entry, the tested form may be a part): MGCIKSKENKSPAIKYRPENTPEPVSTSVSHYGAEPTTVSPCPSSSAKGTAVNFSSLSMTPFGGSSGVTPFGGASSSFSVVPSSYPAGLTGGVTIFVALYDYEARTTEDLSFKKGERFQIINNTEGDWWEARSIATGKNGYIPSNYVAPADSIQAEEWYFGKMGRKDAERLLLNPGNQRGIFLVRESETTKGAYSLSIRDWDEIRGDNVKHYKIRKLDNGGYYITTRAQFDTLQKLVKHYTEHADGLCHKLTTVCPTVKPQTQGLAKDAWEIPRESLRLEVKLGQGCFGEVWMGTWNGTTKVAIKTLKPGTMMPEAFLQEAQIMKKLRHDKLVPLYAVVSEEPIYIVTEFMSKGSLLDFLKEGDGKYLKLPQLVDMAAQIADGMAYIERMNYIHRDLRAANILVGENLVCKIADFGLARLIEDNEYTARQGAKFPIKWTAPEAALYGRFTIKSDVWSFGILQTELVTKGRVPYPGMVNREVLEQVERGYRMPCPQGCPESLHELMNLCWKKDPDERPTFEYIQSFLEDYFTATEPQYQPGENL
T2 sequence (P12931 whole entry, the tested form may be a part): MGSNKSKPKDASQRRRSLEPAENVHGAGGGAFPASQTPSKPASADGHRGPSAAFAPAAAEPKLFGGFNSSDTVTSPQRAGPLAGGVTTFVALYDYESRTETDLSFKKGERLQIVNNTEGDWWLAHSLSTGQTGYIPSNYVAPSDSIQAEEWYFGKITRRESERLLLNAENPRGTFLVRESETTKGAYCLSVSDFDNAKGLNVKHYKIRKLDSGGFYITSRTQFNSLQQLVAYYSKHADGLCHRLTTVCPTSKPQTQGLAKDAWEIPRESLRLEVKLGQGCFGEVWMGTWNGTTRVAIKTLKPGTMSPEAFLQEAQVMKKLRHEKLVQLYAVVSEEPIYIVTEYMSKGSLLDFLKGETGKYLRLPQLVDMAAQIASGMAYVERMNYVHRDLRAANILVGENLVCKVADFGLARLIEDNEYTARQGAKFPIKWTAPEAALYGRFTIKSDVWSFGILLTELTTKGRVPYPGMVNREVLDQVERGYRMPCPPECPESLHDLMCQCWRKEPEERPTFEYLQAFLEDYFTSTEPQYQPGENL
T6 sequence (P51451 whole entry, the tested form may be a part): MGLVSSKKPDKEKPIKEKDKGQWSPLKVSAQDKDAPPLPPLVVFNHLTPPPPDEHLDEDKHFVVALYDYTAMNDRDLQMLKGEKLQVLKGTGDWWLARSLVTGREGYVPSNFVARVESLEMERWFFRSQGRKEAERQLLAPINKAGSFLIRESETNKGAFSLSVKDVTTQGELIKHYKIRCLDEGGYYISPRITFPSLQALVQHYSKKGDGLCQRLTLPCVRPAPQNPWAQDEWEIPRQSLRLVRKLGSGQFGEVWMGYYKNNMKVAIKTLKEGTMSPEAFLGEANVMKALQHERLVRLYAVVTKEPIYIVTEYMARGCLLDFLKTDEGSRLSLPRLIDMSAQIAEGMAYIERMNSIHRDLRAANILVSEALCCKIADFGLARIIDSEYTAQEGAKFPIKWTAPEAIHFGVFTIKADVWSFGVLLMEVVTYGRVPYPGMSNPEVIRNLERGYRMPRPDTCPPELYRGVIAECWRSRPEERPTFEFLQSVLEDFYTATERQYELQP
T8 sequence (Q9BRG2 whole entry, the tested form may be a part): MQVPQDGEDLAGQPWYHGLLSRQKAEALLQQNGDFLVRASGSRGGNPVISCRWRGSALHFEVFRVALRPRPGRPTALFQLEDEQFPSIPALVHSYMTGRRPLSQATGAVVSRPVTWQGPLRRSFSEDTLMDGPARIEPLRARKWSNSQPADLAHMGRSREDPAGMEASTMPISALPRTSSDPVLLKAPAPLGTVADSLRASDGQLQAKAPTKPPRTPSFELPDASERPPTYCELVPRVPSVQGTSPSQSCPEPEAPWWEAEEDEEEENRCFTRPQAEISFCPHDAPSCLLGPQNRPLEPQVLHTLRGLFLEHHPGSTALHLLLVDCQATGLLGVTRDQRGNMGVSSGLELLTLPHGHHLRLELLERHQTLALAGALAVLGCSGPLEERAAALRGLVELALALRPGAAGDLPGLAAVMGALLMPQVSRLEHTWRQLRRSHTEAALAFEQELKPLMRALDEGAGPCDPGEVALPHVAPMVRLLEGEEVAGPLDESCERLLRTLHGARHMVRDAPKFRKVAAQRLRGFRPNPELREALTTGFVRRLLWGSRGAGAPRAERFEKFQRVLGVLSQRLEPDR
T4 sequence (O00459 whole entry, the tested form may be a part): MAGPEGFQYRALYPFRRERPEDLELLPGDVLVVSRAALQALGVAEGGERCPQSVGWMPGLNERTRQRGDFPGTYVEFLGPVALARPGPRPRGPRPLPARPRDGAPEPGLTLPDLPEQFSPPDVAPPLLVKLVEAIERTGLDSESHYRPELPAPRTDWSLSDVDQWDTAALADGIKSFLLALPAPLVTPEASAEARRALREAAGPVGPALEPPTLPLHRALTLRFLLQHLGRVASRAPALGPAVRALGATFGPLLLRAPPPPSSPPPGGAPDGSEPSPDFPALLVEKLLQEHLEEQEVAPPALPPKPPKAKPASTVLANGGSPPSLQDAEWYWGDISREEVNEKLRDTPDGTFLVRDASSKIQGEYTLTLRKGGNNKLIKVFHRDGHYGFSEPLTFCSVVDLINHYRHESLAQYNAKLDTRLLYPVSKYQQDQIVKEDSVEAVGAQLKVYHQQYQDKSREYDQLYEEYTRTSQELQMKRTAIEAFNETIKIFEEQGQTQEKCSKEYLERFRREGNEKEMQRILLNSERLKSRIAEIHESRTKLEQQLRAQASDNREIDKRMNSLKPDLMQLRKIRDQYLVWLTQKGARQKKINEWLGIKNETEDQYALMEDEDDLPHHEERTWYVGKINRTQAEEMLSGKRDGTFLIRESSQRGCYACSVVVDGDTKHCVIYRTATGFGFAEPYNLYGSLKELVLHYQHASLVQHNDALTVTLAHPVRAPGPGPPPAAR

Regarding `CC(C)C[C@H](NC(=O)[C@@H]1CCCN1)C(=O)N[C@@H](CCC(N)=O)C(=O)N[C@@H](CCCNC(=N)N)C(=O)N[C@@H](Cc1ccc(OP(=O)(O)O)cc1)C(=O)N[C@@H](CO)C(=O)N[C@@H](CCC(=O)O)C(=O)N[C@@H](CC(=O)O)C(=O)N1CCC[C@H]1C(=O)N[C@H](C(=O)N[C@H](C(=O)N1CCC[C@H]1C(=O)N[C@@H](CC(=O)O)C(=O)O)C(C)C)[C@@H](C)O` [ErbB2 pY1112] (HELM PEPTIDE1{P.L.Q.R.[O=C([C@H](Cc1ccc(OP(=O)(O)O)cc1)N[*:1])[*:2]].S.E.D.P.T.V.P.D}$$$$V2.0), the “Kd” value stood at 1720 nM in assay [1] (setting [9]); 9670 nM in assay [1] (setting [10]); 183210 nM in assay [2] (setting [9]); 5530 nM in assay [3] (protein PLCG2-NC, PM assay replicate # 39331, array fabrication # 39329); 930 nM in assay [3] (setting [11]).
As for `CC(C)C[C@H](NC(=O)[C@@H]1CCCN1C(=O)[C@H](C)NC(=O)[C@@H](NC(=O)[C@H](Cc1ccc(OP(=O)(O)O)cc1)NC(=O)CNC(=O)[C@H](CC(=O)O)NC(=O)[C@@H](NC(=O)[C@@H](N)CCC(=O)O)[C@@H](C)O)C(C)C)C(=O)N[C@H](C(=O)N[C@@H](CS)C(=O)N[C@@H](CO)C(=O)N[C@@H](CC(=O)O)C(=O)O)[C@@H](C)O` [ErbB2 pY1127], the dissociation constant Kd was determined as 40 nM in assay [4] (protein PIK3R2-N, PM assay replicate # 39336); 150 nM in assay [4] (protein PIK3R2-N, PM assay replicate # 39337); 5.3 nM in assay [5] (setting [10]); 65.1 nM in assay [5] (setting [12]); 35 nM in assay [2] (setting [10]); 380 nM in assay [2] (setting [12]). Also, the dissociation constant Kd in assay [2] (setting [13]) worked out at 250 nM; in assay [3] (protein PLCG2-N, PM assay replicate # 39337, array fabrication # 39329), 4160 nM; in assay [3] (setting [11]) it was 1600 nM; in assay [3] (setting [14]) it was 580 nM; in assay [6] (setting [10]) it was 3200 nM; in assay [6] (setting [12]) it was 460 nM. For the same compound, the “Kd” value was 2000 nM in assay [6] (setting [13]); 1210 nM in assay [7] (protein PIK3R3-C, PM assay replicate # 39336, array fabrication # 39329); 2040 nM in assay [7] (protein PIK3R3-C, PM assay replicate # 39337, array fabrication # 39329); 6.98 nM in assay [7] (protein PIK3R3-N, PM assay replicate # 39336, array fabrication # 39329); 75.8 nM in assay [7] (protein PIK3R3-N, PM assay replicate # 39337, array fabrication # 39329); 100 nM in assay [7] (protein PIK3R3-NC, PM assay replicate # 39336, array fabrication # 39329). The dissociation constant Kd in assay [7] (setting [15]) was 15.1 nM; in assay [7] (protein PIK3R3-NC, PM assay replicate # 39603, array fabrication # 39392) it was 50 nM; in assay [8] (setting [10]), 150 nM; in assay [8] (setting [12]) it was 1150 nM.
Take `CCN(CC)c1ccc2c(-c3ccc(C(=O)N[C@@H](CC(N)=O)C(=O)NCC(=O)N4CCC[C@H]4C(=O)N4CCC[C@H]4C(=O)N[C@@H](CCCCN)C(=O)N[C@@H](C)C(=O)N[C@@H](CCC(=O)O)C(=O)N[C@@H](CC(=O)O)C(=O)N[C@@H](CCC(=O)O)C(=O)N[C@@H](Cc4ccc(OP(=O)(O)O)cc4)C(=O)N[C@H](C(=O)N[C@@H](CC(N)=O)C(=O)N[C@@H](CCC(=O)O)C(=O)N4CCC[C@H]4C(=O)N[C@@H](CC(C)C)C(=O)N[C@@H](Cc4ccc(O)cc4)C(=O)N[C@@H](CC(C)C)C(=O)N[C@@H](CC(=O)O)C(=O)O)C(C)C)cc3C(=O)[O-])c3ccc(=[N+](CC)CC)cc-3oc2c1` [ErbB4 1202 (18-mer)] (HELM PEPTIDE1{[CCN(CC)c1ccc2c(-c3ccc(C(=O)[*:2])cc3C(=O)[O-])c3ccc(=[N+](CC)CC)cc-3oc2c1].N.G.P.P.K.A.E.D.E.[O=C([C@H](Cc1ccc(OP(=O)(O)O)cc1)N[*:1])[*:2]].V.N.E.P.L.Y.L.D}$$$$V2.0): the “Kd” value was 650 nM in assay [4] (protein PIK3R2-NC, PM assay replicate # 39337); 30900 nM in assay [1] (setting [16]); 350 nM in assay [5] (setting [16]); 1440 nM in assay [5] (setting [12]); 1610 nM in assay [5] (setting [17]); 420 nM in assay [5] (setting [18]). Also, the “Kd” value came out at 400 nM in assay [2] (setting [16]); 1530 nM in assay [3] (setting [14]); 410 nM in assay [3] (protein PLCG2-NC, PM assay replicate # 39351, array fabrication # 39336); 610 nM in assay [3] (protein PLCG2-NC, PM assay replicate # 39352, array fabrication # 39336); 450 nM in assay [6] (setting [16]); 7840 nM in assay [6] (setting [12]). The “Kd” value in assay [6] (setting [17]) worked out at 2290 nM; in assay [6] (setting [18]), 2390 nM; in assay [7] (setting [15]), 1180 nM; in assay [7] (protein PIK3R3-NC, PM assay replicate # 39352, array fabrication # 39336), 1720 nM; in assay [8] (setting [16]), 1000 nM.

Usually Kd stands for a measure of binding affinity in units of concentration.
